Among the data in article PMC3209665 (Chemical biology & drug design, 2009) are solubility values, retold here.

The nature of this data set: Solubility in ITC buffer. The class given is physicochemical. The settings on record: 10 mM sodium acetate, pH 5.0, 2% DMSO.

KNI-10006: the solubility entry was “limited solubility”.
